Measurements reported in patent US20190382850A1, “METHOD FOR IDENTIFYING MITOCHONDRIAL DNA IN EXTRACELLULAR VESICLES AND TREATMENT OF MTDNA-RELATED DISORDERS AND CANCER” (Memorial Sloan-Kettering Cancer Center, priority 2017, published 2019).

Test system: MCF7 xenografts
Assay: Tumor growth (BLI) of MCF7 mammary fat pad xenografts treated with HT
Format: in vivo, mice
Conditions: weekly fulvestrant, FIG. 2a
Excerpt: (Panel a) Representative tumor growth kinetics (BLI) of GFP+/Luciferase+MCF7 xenografts (n=10) treated with weekly fulvestrant once mammary fat pad tumors were established (after 3 months) which led to a period (4 months) of disease stability on HT (HTS) followed by exponential growth on HT (HTR). Representative H&E images of tumors and primary cultures from unsorted as well as FACS purified cancer cells (GFP+/Epcam+) and murine CAFs (GFP−/Epcam). Scale bar 20 μm. (Panel b) OXPHOS potential in tumor-derived cancer cells (panel a) was measured±HT (fulvestrant, 10 μM) by Seahorse. (Panel c) mtDNA/nDNA (human and murine) level as Fold change (log10scale) in cancer cells and mCAFs isolated from HTS and HTR disease (panel a). (Panel d) Percentage of metastatic lesions isolated by FACS from tumor-bearing mice (n=8/group) expressing murine mtDNA as determined by ND1 qPCR (2 ng of total DNA). Oxygen consumption rates (OCR) in murine-mtDNApos and ctrl HTR cells determined by Seahorse. (Panel e) Murine mitochondrial RNA expression (12 genes: ND1, ND2, COX2, ATP8, ATP6, COX3, ND3, ND4L, ND4, ND5, ND6, CytB) as fold change (logioscale) determined by qRT-PCR in HTR and HTS cells (panel a). […]
All cancer cell lines were engineered to express a GFP positive luciferase expression vector for in vitro and in vivo imaging studies. […] EV-number was determined by Nanosight. […]

C[C@]12CC[C@@H]3c4ccc(O)cc4C[C@@H](CCCCCCCCC[S+]([O-])CCCC(F)(F)C(F)(F)F)[C@H]3[C@@H]1CC[C@@H]2O (stereo partly shown) [fulvestrant]
growth pattern of tumors in tumor-bearing mice treated with HT: no growth for 4 months (HTS) followed by exponential growth (HTR)
